{"source": "patent US10000791B2", "about": "“Measurement method for human pancreatic lipase activity” (ASAHI KASEI PHARMA CORPORATION, priority 2013, dated 2018)", "test_system": "human pancreatic lipase", "experiment": "lipase activity measured in control, normal and heparin-administered samples with each reagent (1,2-dioleoyl glycerol, UV method; Liquitech Lipase Color II for verification)", "format": "biochemical", "set-up": "lipase activity relative to (1) comparative example NaDCA (Table 1): concentration or dose not given beside the values", "conditions": "for lipase activity (Table 1): NaDCA pH 8.15, other bile salts pH 7.0; for lipase activity (Table 2): comparative example pH 8.15, present example pH 7.1, bile acid 40 mmol/L in R-1", "method": "A mixture of the substrate stock solution and the R-1 in a proportion of 1:2 was used as a first reagent. The R-2 was directly used as a second reagent. As a sample, pooled serum or a control sample (a control containing a pancreatic lipase) was used. A proportion in amount among the sample, the first reagent and the second reagent was set as sample:first reagent:second reagent of 0.01 ml:0.18 ml:0.06 ml. The sample was added to the first reagent, the resultant mixture was heated at 37° C. for 5 minutes, the second reagent was added thereto, and a change rate of an absorbance at 340 nm based on reduced NADP was obtained at 37° C. from 3 minutes after the addition of the second reagent to 4 minutes after the addition, and then, the lipase activity was calculated by using a molecular extinction coefficient of 6300 L/mol·cm of the reduced NADP. Besides, as a sample blank, saline was used instead of a sample, an absorbance was measured by using the reagent for sample blank obtained by removing MGLPII from the second reagent, and a difference between the thus measured two values was defined as an enzyme activity value. For the measurement, Hitachi automatic analyzer Model H7170 or H7080 was used.\nSimilarly to Example 1, a mixture of the substrate stock solution and the R-1 in a proportion of 1:2 was used as a first reagent. Except for this, the measurement was performed in the same manner as in Example 1.\nA commercially available reagent for a resorufin colorimetric method, “Liquitech Lipase Color II” manufactured by Roche Diagnostics using 1,2-O-dilauryl-rac-glycerol-3-glutaric acid-(6-methylresorufin)ester (DGGR), which is regarded not to be influenced by a non-pancreatic lipase, such as a lipoprotein lipase or a hepatic lipase, appearing in blood due to administration of heparin, was used for verifying the effect of the present example. “Liquitech Lipase Color II” was used in accordance with the package insert, and a special calibrator was used for calculating the enzyme activity. […] The concentration of each bile acid used in the present example was set to be the same as that in the comparative example.\nAs samples, a control, non-heparin-administered samples (normal samples), and heparin-administered samples were used.\nThe compositions of the reagents were the same as those of Example 2. As a comparative example, NaDCA (in a concentration of 40 mmol/L in the R-1) was used as the bile acid, and the reaction solution was adjusted to pH 8.15 (by the Bicine buffer) for measuring a heparin-administered sample.\nIt is noted that CRM-001b containing a human pancreatic recombinant lipase dissolved not in distilled water but in a pooled serum was used as the calibrator to calculate the lipase activity.\nAs a bile acid of the present example and a reference example, NaTDCA was selected, and the pH dependence with the pH of a reaction solution changed in a range of 6.2 to 7.6 was examined. It is noted that a case of pH 7.6 was used as the reference example. An MES buffer was used for adjusting pH to 6.2 and 6.4, and the BES buffer was used for adjusting the other pHs. As samples, (six) control samples (controls each containing a pancreatic lipase) and (nine) heparin-administered samples were used. As a comparative example, NaDCA (in a concentration of 40 mmol/L in the R-1) was used as the bile acid, and a reaction solution having pH 8.15 (the Bicine buffer) was used. Besides, “Liquitech Lipase Color II” manufactured by Roche Diagnostics was used for verifying the effect of the present example.", "data": [{"smiles": "C[C@H](CCC(=O)NCC(=O)[O-])[C@H]1CC[C@H]2[C@@H]3[C@H](O)C[C@@H]4C[C@H](O)CC[C@]4(C)[C@H]3CC[C@]12C.[Na+]", "note": "[NaGCDCA, sodium glycochenodeoxycholate]", "values": [{"measurement": "sensitivity at pH 7.95 compared with pH 7.0", "setting": "NaGCDCA 40 mmol/L in R-1", "value": "about 40%"}, {"measurement": "lipase activity (Table 1)", "setting": "Normal sample 1", "value": 38.1, "unit": "U/L"}, {"measurement": "lipase activity relative to (1) comparative example NaDCA (Table 1)", "setting": "Normal sample 1, pH 7.0", "value": 97.5, "unit": "%"}, {"measurement": "lipase activity (Table 1)", "setting": "Normal sample 2", "value": 75.6, "unit": "U/L"}, {"measurement": "lipase activity relative to (1) comparative example NaDCA (Table 1)", "setting": "Normal sample 2, pH 7.0", "value": 79.5, "unit": "%"}, {"measurement": "lipase activity (Table 1)", "setting": "Normal sample 3", "value": 41.2, "unit": "U/L"}, {"measurement": "lipase activity relative to (1) comparative example NaDCA (Table 1)", "setting": "Normal sample 3, pH 7.0", "value": 88.4, "unit": "%"}, {"measurement": "lipase activity (Table 1)", "setting": "Normal sample 4", "value": 31.7, "unit": "U/L"}, {"measurement": "lipase activity relative to (1) comparative example NaDCA (Table 1)", "setting": "Normal sample 4, pH 7.0", "value": 73.0, "unit": "%"}, {"measurement": "lipase activity (Table 1)", "setting": "Normal sample 5", "value": 28.8, "unit": "U/L"}, {"measurement": "lipase activity relative to (1) comparative example NaDCA (Table 1)", "setting": "Normal sample 5, pH 7.0", "value": 70.8, "unit": "%"}, {"measurement": "lipase activity (Table 1)", "setting": "sample Heparin 1", "value": 30.8, "unit": "U/L"}, {"measurement": "lipase activity (Table 2)", "setting": "sample Heparin 1", "value": 47.8, "unit": "U/L"}, {"measurement": "lipase activity relative to (1) comparative example NaDCA (Table 1)", "setting": "sample Heparin 1, pH 7.0", "value": 40.1, "unit": "%"}, {"measurement": "lipase activity (Table 1)", "setting": "sample Heparin 2", "value": 41.3, "unit": "U/L"}, {"measurement": "lipase activity (Table 2)", "setting": "sample Heparin 2", "value": 25.9, "unit": "U/L"}, {"measurement": "lipase activity relative to (1) comparative example NaDCA (Table 1)", "setting": "sample Heparin 2, pH 7.0", "value": 47.6, "unit": "%"}, {"measurement": "lipase activity (Table 1)", "setting": "sample Heparin 3", "value": 29.8, "unit": "U/L"}, {"measurement": "lipase activity (Table 2)", "setting": "sample Heparin 3", "value": 44.0, "unit": "U/L"}, {"measurement": "lipase activity relative to (1) comparative example NaDCA (Table 1)", "setting": "sample Heparin 3, pH 7.0", "value": 26.4, "unit": "%"}, {"measurement": "lipase activity (Table 1)", "setting": "sample Heparin 4", "value": 31.6, "unit": "U/L"}, {"measurement": "lipase activity relative to (1) comparative example NaDCA (Table 1)", "setting": "sample Heparin 4, pH 7.0", "value": 31.2, "unit": "%"}, {"measurement": "lipase activity (Table 1)", "setting": "sample Heparin 5", "value": 17.8, "unit": "U/L"}, {"measurement": "lipase activity relative to (1) comparative example NaDCA (Table 1)", "setting": "sample Heparin 5, pH 7.0", "value": 26.0, "unit": "%"}, {"measurement": "lipase activity (Table 1)", "setting": "sample Heparin 6", "value": 22.5, "unit": "U/L"}, {"measurement": "lipase activity relative to (1) comparative example NaDCA (Table 1)", "setting": "sample Heparin 6, pH 7.0", "value": 32.5, "unit": "%"}, {"measurement": "lipase activity (Table 1)", "setting": "sample Heparin 7", "value": 51.0, "unit": "U/L"}, {"measurement": "lipase activity relative to (1) comparative example NaDCA (Table 1)", "setting": "sample Heparin 7, pH 7.0", "value": 36.9, "unit": "%"}, {"measurement": "lipase activity (Table 1)", "setting": "sample Heparin 8", "value": 36.6, "unit": "U/L"}, {"measurement": "lipase activity relative to (1) comparative example NaDCA (Table 1)", "setting": "sample Heparin 8, pH 7.0", "value": 29.0, "unit": "%"}, {"measurement": "lipase activity (Table 1)", "setting": "sample Heparin 9", "value": 75.4, "unit": "U/L"}, {"measurement": "lipase activity relative to (1) comparative example NaDCA (Table 1)", "setting": "sample Heparin 9, pH 7.0", "value": 44.7, "unit": "%"}, {"measurement": "lipase activity (Table 5)", "setting": "sample Heparin 31, pH 7.0", "value": 40.7, "unit": "U/L"}, {"measurement": "lipase activity (Table 5)", "setting": "sample Heparin 31, pH 7.95", "value": 60.7, "unit": "U/L"}, {"measurement": "lipase activity (Table 5)", "setting": "sample Heparin 32, pH 7.0", "value": 32.7, "unit": "U/L"}, {"measurement": "lipase activity (Table 5)", "setting": "sample Heparin 32, pH 7.95", "value": 77.0, "unit": "U/L"}, {"measurement": "lipase activity (Table 1)", "setting": "sample PRECINORM", "value": 42.3, "unit": "U/L"}, {"measurement": "lipase activity (Table 5)", "setting": "sample PRECINORM, pH 7.0", "value": 42.3, "unit": "U/L"}, {"measurement": "lipase activity relative to (1) comparative example NaDCA (Table 1)", "setting": "sample PRECINORM, pH 7.0", "value": 82.9, "unit": "%"}, {"measurement": "lipase activity (Table 5)", "setting": "sample PRECINORM, pH 7.95", "value": 24.0, "unit": "U/L"}, {"measurement": "lipase activity (Table 1)", "setting": "sample PRECIPATH", "value": 109.9, "unit": "U/L"}, {"measurement": "lipase activity (Table 5)", "setting": "sample PRECIPATH, pH 7.0", "value": 109.9, "unit": "U/L"}, {"measurement": "lipase activity relative to (1) comparative example NaDCA (Table 1)", "setting": "sample PRECIPATH, pH 7.0", "value": 85.9, "unit": "%"}, {"measurement": "lipase activity (Table 5)", "setting": "sample PRECIPATH, pH 7.95", "value": 57.3, "unit": "U/L"}, {"measurement": "lipase activity (Table 5)", "setting": "sample Pool 1, pH 7.0", "value": 36.9, "unit": "U/L"}, {"measurement": "lipase activity (Table 5)", "setting": "sample Pool 1, pH 7.95", "value": 19.4, "unit": "U/L"}, {"measurement": "lipase activity (Table 5)", "setting": "sample Pool 2, pH 7.0", "value": 17.5, "unit": "U/L"}, {"measurement": "lipase activity (Table 5)", "setting": "sample Pool 2, pH 7.95", "value": 15.4, "unit": "U/L"}, {"measurement": "lipase activity (Table 5)", "setting": "sample Seraclear LP, pH 7.0", "value": 17.5, "unit": "U/L"}, {"measurement": "lipase activity (Table 5)", "setting": "sample Seraclear LP, pH 7.95", "value": 7.5, "unit": "U/L"}]}]}
